Test results reported in patent US11185593B2, “Alkylating agent for alkylating target with driver oncogene mutation” (Chiba Prefecture, priority 2013, dated 2021).
Read-outs that look alike come from different tables or passages of the source.

How the values were obtained:
[1] = system: gene sequence of the codon 12 mutation of the KRAS gene; assay: Confirmation of alkylation of KRAS codon 12 mutation sequence, high resolution gel electrophoresis; format: biochemical; settings: 23° C., 17 hours
Protocol: A 25 μM pair of two fragments (5′-[…]-3′ (SEQ ID NO: 1) and 3′-[…]-5′ (SEQ ID NO: 2)) (final volume: 50 μL) was annealed to obtain a DNA fragment. The annealed fragment was ligated to a pGEM-T easy vector manufactured by […]. Thereafter, Escherichia coli (JM109) competent cells manufactured by Promega were transformed with the obtained product, and the resulting cells were then cultured at 37° C. overnight in a plate comprising an LB medium containing 100 μg/mL ampicillin. A transformed white colony of interest was identified by colony direct PCR using a 500 nM primer set (T7: 5′-TAATACGACTCACTATAGG-3′ (SEQ ID NO: 3); and sp6: 5′-[…]-3′ (SEQ ID NO: 4)) and 10 μL of a reaction solution containing 1 U GoTaq® Green Master Mix manufactured by Promega. The following amplification cycle was applied. […]
A DNA fragment, 213 base pairs in length, the 5′-terminus of which had been labeled with Texas Red, was synthesized using the above-described plasmid and primers (sp6: 5′-ATTTAGGTGACACTATAG-3′ (SEQ ID NO: 5), and T7: 5′-[…]-3′ (SEQ ID NO: 6), with 5′-terminus labeled with Texas Red). The obtained DNA fragment, the 5′-terminus of which had been labeled with Texas Red, was purified using PCR-Clean Up Kit manufactured by Sigma, and the concentration was then determined by UV absorption. […]

LS180 cells = assay: Cytotoxicity test, WST-8 (cell counting kit-8), 48 hours; format: cell-based, human; settings: Homo sapiens
Protocol: Using LS180 colon cell line, the cells were seeded in each well of a 96-well microplate, resulting in a cell density of 3000 to 5000 cells/well, and they were then cultured overnight. On the following day, KR12 recognizing a codon 12 mutation, WT recognizing wild-type KRAS, and C12-Dp having the same structure as that of KR12, to which an alkylating agent had not been added, were each added to the cultured cells in concentrations of 1 nM, 10 nM, 30 nM, 100 nM, 300 nM, and 1 μM, and were then treated for 48 hours. Thereafter, a WST-8 reagent was added to each well, using cell counting kit-8 (DOJINDO), and the obtained mixture was then reacted for 2 hours. After that, the number of cells was counted at a wavelength of 450 nm according to a colorimetric analysis method using a microplate reader. The method of counting the number of cells comprises: 1) obtaining the mean value of the medium alone, 2) subtracting the mean value of the medium from each well, 3) obtaining the mean value of DMSO, 4) dividing the medium-subtracted value by the mean value of DMSO and then multiplying by 100, 5) obtaining the mean value of each treatment group and a standard deviation, and then preparing a graph. The calculation formula of IC50 is the following: IC50=10 (LOG (A/B)×(50−C)/(D−C)+LOG (B)), wherein A: a higher concentration of two concentrations sandwiching 50%, B: a lower concentration of two concentrations sandwiching 50%, C: inhibitory percentage at B, and D: inhibitory percentage at A.
Using colon cancer and pancreatic cancer cell lines, the cells were seeded in each well of a 96-well microplate, resulting in a cell density of 3000 to 5000 cells/well, and they were then cultured overnight. On the following day, the cells of each type were treated with KR12 recognizing a codon 12 mutation in concentrations of 1 nM, 10 nM, 30 nM, 100 nM, 300 nM, and 1 μM for 48 hours. Thereafter, a WST-8 reagent was added to each well, using cell counting kit-8, and the obtained mixture was then reacted for 2 hours. After that, the number of cells was counted at a wavelength of 450 nm according to a colorimetric analysis method using a microplate reader. The method of counting the number of cells comprises: 1) obtaining the mean value of the medium alone, 2) subtracting the mean value of the medium from each well, 3) obtaining the mean value of DMSO, 4) dividing the medium-subtracted value by the mean value of DMSO and then multiplying by 100, 5) obtaining the mean value of each treatment group and a standard deviation, and then preparing a graph. […]

CC(=O)Nc1cn(C)c(C(=O)Nc2cc(C(=O)NCCC(=O)Nc3cn(C)c(C(=O)Nc4cn(C)c(C(=O)Nc5cc(C(=O)Nc6cn(C)c(C(=O)NCCCC(=O)Nc7cc(C(=O)Nc8cn(C)c(C(=O)NCCC(=O)Nc9cc(C(=O)Nc%10cc(C(=O)Nc%11ccc%12[nH]c(C(=O)N%13CC(CCl)c%14c%13cc(O)c%13ccccc%14%13)cc%12c%11)n(C)c%10)n(C)c9)n8)n(C)c7)n6)n(C)c5)n4)n3)n(C)c2)n1 (stereo not shown) [KR12]
alkylation of the gene sequence of the codon 12 mutation of the KRAS gene ([1]; mutated KRAS sequence of AsPC-1 cells (G12D), FIG. 7B): specifically induced concentration-dependent alkylation | alkylation of the gene sequence of the codon 12 mutation of the KRAS gene ([1]; mutated KRAS sequence of SW480 cells (G12V), FIG. 7A): specifically induced concentration-dependent alkylation | IC50 (LS180 cells; LS180, KRAS G12D Hetero, Table 1, read-out: KR12 IC50): 42 nM | IC50 (LS180 cells; LS180 cells, WST-8, FIG. 8, read-out: IC50): 53 nM
